Reference: patent publication US6376670B1, “Quinoline-indole antimicrobial agents, uses and compositions related thereto” (Sepracor Inc., priority 1997, dated 2002)
Where two headings read alike, the source gives them in different places.

Tests used:
Experiment in all cases: Determination of MIC values (BHI broth, 96 well microtiter plate)
Format in all cases: cell-based
[1] = system: Streptococcus pneumoniae; conditions: Streptococcus pneumoniae, BHI broth, read-out: MIC S. pneu
Method: (§1) Stock solutions of compounds are prepared with a concentration of 10 mg/mL. These solutions are then diluted 1:4 to give a concentration of 2.5 mg/mL. The compounds are then serially diluted 1:2 for 6 iterations. The concentrations made for each compound are 2.5, 1.25, 0.625, 0.3125, 0.156, 0.078, and 0.039 mg/mL. A control sample (no compound) is run along with each compound tested. All dilutions are made in DMSO.
(§2) All wells of a 96 well microtiter plate are filled with 100 μL of BHI (Brain-Heart Infusion) broth. Columns on the plate are labeled 1-12, and rows are labeled A-H. Each column of wells is used to test one series of diluted compounds. Into each well of 100 μL of BHI broth, 1 μL of diluted compound is placed for a 1:100 dilution. This makes the final concentration of each drug series 25, 12.5, 6.25, 3.125, 1.56, 0.78, 0.39, and 0 μg/mL.
(§3) Test Organism: A sterile 15 mL screw cap tube is filled wth 3 mL of BHI broth. Next, 2-3 colonies of test organism are inoculated into the tube. The tube is then incubated at 37° C. in a CO2 (approx. 7%) atmosphere jar. The organisms are allowed to grow to the density of a 0.5 McFarland standard (10^8 cells/mL). The organism is then inoculated into each well of the microtiter plate containing the diluted compounds to be tested for MIC. The inoculum is 1 μL in volume and represents 10^5 to 10^6 cells/mL.
(§4) After inoculation the plates are covered and incubated at 37° C. and approx. 7-10% CO2 atmosphere overnight (about 16 hours). The plates are then observed for growth, the well with the lowest concentration of drug and no observable growth represents the well determining the MIC.

[2] = system: methicillin-resistant Staphylococcus aureus (MRSA); conditions: Staphylococcus aureus, MRSA, BHI broth, read-out: MIC MRSA
Method: as §1, §2, §3, §4

[3] = system: vancomycin-resistant Enterococcus spp. (VRE); conditions: Enterococcus, VRE, BHI broth, read-out: MIC VREF
Method: as §1, §2, §3, §4

[4] = 37° C., overnight (about 16 hours)
[5] = 16 h, 37° C., overnight (about 16 hours)

| SMILES | MIC [2, 5] [µg/mL] | MIC [3, 5] [µg/mL] | MIC ([2]; overnight 37° C.) [µg/mL] | MIC ([3]; VREF, overnight 37° C.) [µg/mL] | also measured |
| --- | --- | --- | --- | --- | --- |
| COc1ccc(NC(=O)c2cc(-c3c[nH]c4ccc(Br)cc34)nc3ccccc23)cc1 [Example 48] | < 7 | > 25 |  |  | MIC [1, 4]: < 7 µg/mL |
| O=C(O)c1ccc2[nH]cc(-c3cc(C(=O)O)c4ccccc4n3)c2c1 [Example 76] | > 25 | > 25 |  |  | MIC [1, 4]: > 25 µg/mL |
| NCc1ccc(CNC(=O)c2cc(-c3c[nH]c4ccc(Br)cc34)nc3ccc(-c4ccccc4)cc23)cc1 [Example 96] | < 7 | < 7 |  |  | MIC [1, 4]: < 7 µg/mL |
| NCc1ccc(CNC(=O)c2cc(-c3c[nH]c4ccc(Br)cc34)nc3c(Cl)cc(I)cc23)cc1 [Example 102] | < 7 | < 7 |  |  | MIC [1, 4]: < 7 µg/mL |
| NCc1ccc(CNC(=O)c2cc(-c3c[nH]c4ccc(Br)cc34)nc3ccc(C(F)(F)F)cc23)cc1 [Example 103] | < 7 | < 7 |  |  | MIC [1, 4]: < 7 µg/mL |
| Cc1ccc2nc(-c3c[nH]c4ccc(Br)cc34)cc(C(=O)NCc3ccc(CN)cc3)c2c1 [Example 104] | < 7 | < 7 |  |  | MIC [1, 4]: < 7 µg/mL |
| NCCCNC(=O)c1cc(-c2c[nH]c3ccc(Br)cc23)nc2ccc(I)cc12 [Example 108] | < 7 | < 7 |  |  | MIC [1, 4]: < 7 µg/mL |
| NCCCCNC(=O)c1cc(-c2c[nH]c3ccc(Br)cc23)nc2ccc(I)cc12 [Example 109] | < 7 | < 7 |  |  | MIC [1, 4]: < 7 µg/mL |
| NCCCCCNC(=O)c1cc(-c2c[nH]c3ccc(Br)cc23)nc2ccc(I)cc12 [Example 110] | < 7 | < 7 |  |  | MIC [1, 4]: < 7 µg/mL |
| NCCCCCCNC(=O)c1cc(-c2c[nH]c3ccc(Br)cc23)nc2ccc(I)cc12 [Example 111] | < 7 | < 7 |  |  | MIC [1, 4]: < 7 µg/mL |
| NC1CCCCC1NC(=O)c1cc(-c2c[nH]c3ccc(Br)cc23)nc2ccc(I)cc12 (stereo not shown) [Example 112] | < 7 | < 7 |  |  | MIC [1, 4]: < 7 µg/mL |
| NC1CCC(NC(=O)c2cc(-c3c[nH]c4ccc(Br)cc34)nc3ccc(I)cc23)CC1 (stereo not shown) [Example 113] | < 7 | < 7 |  |  | MIC [1, 4]: < 7 µg/mL |
| NCC1CCC(CNC(=O)c2cc(-c3c[nH]c4ccc(Br)cc34)nc3ccc(I)cc23)CC1 (stereo not shown) [Example 114] | < 7 | < 7 |  |  | MIC [1, 4]: < 7 µg/mL |
| Fc1cccc2[nH]cc(-c3ccc4ccccc4n3)c12 [Example 182] | > 25 | > 25 |  |  |  |
| COc1ccc2[nH]cc(-c3ccc4ccccc4n3)c2c1 [Example 185] | < 25 | > 25 |  |  |  |
| O=[N+]([O-])c1ccc2[nH]cc(-c3ccc4ccccc4n3)c2c1 [Example 186] | > 25 | > 25 |  |  |  |
| Cc1[nH]c2ccccc2c1-c1ccc2ccccc2n1 [Example 187] | > 25 | > 25 |  |  |  |
| Cc1ccc2[nH]cc(-c3ccc4ccccc4n3)c2c1 [Example 188] | > 25 | > 25 |  |  |  |
| Cc1cccc2c(-c3ccc4ccccc4n3)c[nH]c12 [Example 189] | < 25 | < 25 |  |  |  |

| SMILES | MIC [2, 5] [µg/mL] | MIC [3, 5] [µg/mL] | MIC ([2]; overnight 37° C.) [µg/mL] | MIC ([3]; VREF, overnight 37° C.) [µg/mL] | also measured |
| --- | --- | --- | --- | --- | --- |
| N#Cc1ccc2[nH]cc(-c3ccc4ccccc4n3)c2c1 [Example 190] | > 25 | > 25 |  |  |  |
| Fc1cccc2[nH]cc(-c3ccc4cc(Cl)ccc4n3)c12 [Example 192] | > 25 | > 25 |  |  |  |
| Cc1[nH]c2ccccc2c1-c1ccc2cc(Cl)ccc2n1 [Example 197] | < 7 | > 25 |  |  |  |
| Cc1ccc2[nH]cc(-c3ccc4cc(Cl)ccc4n3)c2c1 [Example 198] | > 25 | > 25 |  |  |  |
| Clc1ccc2nc(-c3c(-c4ccccc4)[nH]c4ccccc34)ccc2c1 [Example 203] |  |  | > 25 | > 25 |  |
| Oc1ccc2[nH]cc(-c3ccc4cc(Cl)ccc4n3)c2c1 [Example 205] |  |  | < 25 | < 25 |  |
| COc1cc2[nH]cc(-c3ccc4cc(Cl)ccc4n3)c2cc1OC [Example 206] |  |  | > 25 | > 25 |  |
| O=C(O)c1cc(-c2c[nH]c3ccc(Br)cc23)nc2ccc(C#CCN3CCNCC3)cc12 [Example 207] |  |  | > 25 | < 25 |  |
| Cn1cc(-c2ccc3cc(Cl)ccc3n2)c2cc(F)ccc21 [Example 210] |  |  | < 7 | > 25 |  |
| Cn1cc(-c2ccc3cc(Cl)ccc3n2)c2ccc(F)cc21 [Example 212] |  |  | > 25 | > 25 |  |
| Cn1cc(-c2ccc3cc(Cl)ccc3n2)c2cc(OCc3ccccc3)ccc21 [Example 213] |  |  | < 25 | < 25 |  |
| COc1ccc2c(c1)c(-c1ccc3cc(Cl)ccc3n1)cn2C [Example 214] |  |  | < 25 | > 25 |  |
| Cc1c(-c2ccc3cc(Cl)ccc3n2)c2ccccc2n1C [Example 215] |  |  | < 7 | < 25 |  |
| Cc1ccc2c(c1)c(-c1ccc3cc(Cl)ccc3n1)cn2C [Example 216] |  |  | < 25 | > 25 |  |
| Cn1c(-c2ccccc2)c(-c2ccc3cc(Cl)ccc3n2)c2ccccc21 [Example 220] |  |  | < 25 | > 25 |  |
| COc1cc2c(-c3ccc4cc(Cl)ccc4n3)cn(C)c2cc1OC [Example 222] |  |  | > 25 | > 25 |  |
| CN(CC#Cc1ccc2nc(-c3c[nH]c4ccc(Br)cc34)cc(C(=O)NCc3ccc(CN)cc3)c2c1)C1CCCCC1 [Example 237] |  |  | < 7 | < 7 |  |
| NCC1CCCC(CNC(=O)c2cc(-c3c[nH]c4ccc(Br)cc34)nc3cc(F)ccc23)C1 (stereo not shown) [Example 255] |  |  | < 7 | < 7 |  |
| CN(CC#Cc1ccc2c(C(=O)NCc3ccc(CN)cc3)cc(-c3c[nH]c4ccc(Br)cc34)nc2c1)C1CCCCC1 [Example 264] |  |  | < 7 | < 25 |  |

| SMILES | MIC [2, 5] [µg/mL] | MIC [3, 5] [µg/mL] | MIC ([2]; overnight 37° C.) [µg/mL] | MIC ([3]; VREF, overnight 37° C.) [µg/mL] | also measured |
| --- | --- | --- | --- | --- | --- |
| CN(CC#Cc1cccc2c(C(=O)NCc3ccc(CN)cc3)cc(-c3c[nH]c4ccc(Br)cc34)nc12)C1CCCCC1 [Example 265] |  |  | < 7 | < 7 |  |
| O=C1c2ccccc2C(=O)N1CCCCn1cc(-c2ccc3cc(Cl)ccc3n2)c2ccc(F)cc21 [Example 267] |  |  | > 25 | > 25 |  |
| NCc1ccc(CNC(=O)c2cc(-c3c[nH]c4ccc(Br)cc34)nc3cc(Cl)c(C#CCN4CCCCC4)cc23)cc1 [Example 268] |  |  | < 7 | < 7 |  |
| Cn1cc(-c2cc(C(=O)NCc3ccc(CN)cc3)c3cc(I)ccc3n2)c2cc(Br)ccc21 [Example 269] |  |  | < 7 | < 7 |  |
| Cn1cc(-c2cc(C(=O)NCc3ccc(CN)cc3)c3cc(I)ccc3n2)c2cc(Br)ccc21 [Example 299] |  |  |  |  | MIC ([1]; S. pneu, overnight 37° C.): < 7 µg/mL |
| Cc1ccc2nc(-c3c[nH]c4ccc(C#N)cc34)ccc2c1 [Example 433] |  |  |  |  | MIC ([2]; 16 h, 37° C., about 16 hours): < 7 µg/mL; MIC ([3]; 16 h, 37° C., about 16 hours): > 25 µg/mL |
| Cc1cccc2ccc(-c3c[nH]c4c(C)cccc34)nc12 [Example 471] |  |  |  |  | MIC ([1]; 37° C., about 16 hours): < 7 µg/mL; MIC ([3]; 16 h, 37° C., about 16 hours): > 25 µg/mL |
| NCCCNC(=O)c1cc(-c2c[nH]c3ccccc23)nc2ccccc12 [compound 1] | > 25 | > 25 |  |  |  |
| NCCNC(=O)c1cc(-c2c[nH]c3ccc(Br)cc23)nc2ccccc12 [compound 2] | < 25 | < 25 |  |  |  |
| NCCCNC(=O)c1cc(-c2c[nH]c3ccc(Br)cc23)nc2ccccc12 [compound 3] | < 25 | < 25 |  |  |  |
| NCc1cccc(CNC(=O)c2cc(-c3c[nH]c4ccc(Br)cc34)nc3ccccc23)c1 [compound 4] | < 25 | < 7 |  |  |  |
| NCC1CCCC(CNC(=O)c2cc(-c3c[nH]c4ccc(Br)cc34)nc3ccccc23)C1 (stereo not shown) [compound 5] | < 7 | < 7 |  |  |  |
| NCc1ccc(CNC(=O)c2ccc3nc(-c4c[nH]c5ccc(Br)cc45)ccc3c2)cc1 [compound 6] | > 25 | > 25 |  |  |  |
| NCc1ccc(CNC(=O)c2cc(-c3c[nH]c4ccccc34)nc3ccccc23)cc1 [compound 7] | > 25 | > 25 |  |  |  |
| O=C(c1cc(-c2c[nH]c3ccccc23)nc2ccccc12)N1CCNCC1 [compound 8] | > 25 | > 25 |  |  |  |
| NC1CCCCC1NC(=O)c1cc(-c2c[nH]c3ccc(Br)cc23)nc2ccccc12 (stereo not shown) [compound 10] | < 25 | < 25 |  |  |  |
| O=C(c1cc(-c2c[nH]c3ccc(Br)cc23)nc2ccccc12)N1CCNCC1 [compound 11] | < 25 | < 25 |  |  |  |
| NCCCCNC(=O)c1cc(-c2c[nH]c3ccc(Br)cc23)nc2ccccc12 [compound 58] | < 25 | < 25 |  |  |  |
